Where a name gives a salt, the structure may show the parent alone.

Broadly, the melting point is the temperature of the solid-liquid transition. As for `O=C1C2CCCN2C(=O)CN1CCCCN1CCN(c2cccc3c2OCCCO3)CC1` (stereo not shown) (as salt: hydrochloride) [Compound (h), 2-[4-[4-(3,4-Dihydro-2H-1,5-benzodioxepin-6-yl)piperazin-1-yl]butyl]-1,4-dioxoperhydropyrrolo[1,2-a]pyrazine], the melting point is 212 to 213 °C (dec.).

The values are drawn from US20090036455A1, “ARYLPIPERAZINE DERIVATIVE AND USE THEREOF AS 5-HT1A RECEPTOR LIGANDS” (CEPA SCHWARZ PHARMA, S.L., priority 2004, published 2009).
